Test system: phosphorylated Akt at serine 473 (pAKTs473) in primary human lung fibroblasts
Assay: Highthroughput phosphorylated Akt (Ser473) in vitro immunoassay (MSD)
Type: cell-based
Settings: Fibroblast, 1 h compound, PDGF-BB 10 ng/ml for 10 min, mean of multiple experiments, read-out: mean pIC50, inhibition of pAkt (Ser473) (converted)
In short: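 Primary human lung fibroblasts in 0.4% FBS were preincubated with compound for 1 h at 37 °C (11-point curve, 0.1% DMSO final), then stimulated with 10 ng/ml PDGF-BB for 10 min. pAkt Ser473 in lysates was measured by MSD electrochemiluminescence; IC50 was derived by non-linear regression between stimulated and unstimulated controls.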

SMILES	IC50 [nM]
CC[C@H]1COCCN1c1cc(CS(=O)(=O)N(C)C)cc(-c2ccc3[nH]c(CO)cc3n2)n1 [Example 35, 1-{2-[(3S)-3-ethylmorpholin-4-yl]-6-[2-(hydroxymethyl)-1H-pyrrolo[3,2-b]pyridin-5-yl]pyridin-4-yl}-N,N-dimethylmethanesulfonamide]	2.51 to 10
CNCc1cc2nc(-c3cc(C4(S(C)(=O)=O)CCOCC4)cc(N4C5CCC4COC5)n3)ccc2[nH]1 [Example 40, ({5-[4-(4-methanesulfonyloxan-4-yl)-6-{3-oxa-8-azabicyclo[3.2.1]octan-8-yl}pyridin-2-yl]-1H-pyrrolo[3,2-b]pyridin-2-yl}methyl)(methyl)amine]	3.16 to 316

— US11254671B2, “Chemical compounds” (GLAXOSMITHKLINE INTELLECTUAL PROPERTY DEVELOPMENT LIMITED, priority 2017, dated 2022)
